“Also recorded” adds a separate entry of the source.
Legend:
AcPAK(128-144)OH = AcPAK(128-144)OH (Pseudomonas aeruginosa, UniProt P02973); type: binding
AcP1(126-148)OH = assay: Competition ELISA, antiserum affinity for P1 peptide; type: binding, Pseudomonas aeruginosa; details: for cross-reactivity of the antiserum with P1: antiserum raised to the named peptide
AcKB7(128-144)OH = assay: Competition ELISA, antiserum affinity for KB7 peptide; type: binding, Pseudomonas aeruginosa; details: for cross-reactivity of the antiserum with KB7: antiserum raised to the named peptide
KB7 wild-type = assay: Active immunization with peptide, mice, KB7 wild-type challenge; type: in vivo, Pseudomonas aeruginosa; details: immunized animals (FIG. 6)
Description: (§1) A.BY/SnJ mice were actively immunized at week 0 with 40-50 μg of peptide-tetanus toxoid conjugate mixed with 100 μg of Adjuvax as adjuvant in 50 μl of 10 mM PBS at pH 7.2. Control mice were given 50 μ of 10 mM PBS at pH 7.2 containing 100 μg of Adjuvax. […] Each test group and the control group consisted of ten animals. The effectiveness of the vaccine was determined by the survival rate of the test animals up to 48 hours.

[1] = tested on: Pseudomonas aeruginosa agarose beads; assay: Active intratracheal model, CF mice; type: in vivo; details: 10 days post i.t. challenge
AcPAO(128-144)OH [2] = target: AcPAO(128-144)OH (Pseudomonas aeruginosa, UniProt P04739); type: binding; details: for cross-reactivity of the antiserum with PAO: antiserum raised to the named peptide
P1 wild-type = assay: Active immunization with peptide, mice, P1 wild-type challenge; type: in vivo, Pseudomonas aeruginosa; details: immunized animals (FIGS. 4, 5)
Description: as §1

[3] = tested on: Pseudomonas aeruginosa strain PAO; details: in vivo
AcPAO(128-144)OH [4] = type: binding, Pseudomonas aeruginosa; details: cross-reactivity of an antiserum: affinity for native PAK over native PAO peptide, 1 = same affinity
[5] = tested on: peptide antigen used to raise the antiserum; assay: Competition ELISA, antiserum affinity for its own peptide antigen; parameters: species or system Pseudomonas aeruginosa; details: peptide giving 50% inhibition of antibody binding to PAK pilin; read-out: Antigen I50
PAK wild-type = assay: Active immunization with peptide, mice, PAK wild-type challenge; type: in vivo, Pseudomonas aeruginosa; details: immunized animals (FIG. 7)
Description: as §1

[6] = fold increase (+) or decrease (−) in affinity compared to antiserum 17-01

KCKSDQDPQFIPKGCSK [CS1]
cross-reactivity of the antiserum with PAK (AcPAK(128-144)OH; antiserum raised to the named peptide): very high cross-reactivities
cross-reactivity of the antiserum with P1 (AcP1(126-148)OH): moderate cross-reactivities
cross-reactivity of the antiserum with KB7 (AcKB7(128-144)OH): moderate cross-reactivities
protection after KB7 wild-type challenge (KB7 wild-type): effective in protecting; also recorded: good protection
Colony Forming Units in BAL Fluid ([1]; immunized i.n. & i.p.): 47 CFU (× 10^3)/mL
White Blood Cell Counts in BAL Fluid, Total Cells ([1]; immunized i.n. & i.p.): 4 (× 10^4)/mL
Colony Forming Units in BAL Fluid ([1]; immunized i.n.): 0 CFU (× 10^3)/mL
White Blood Cell Counts in BAL Fluid, Total Cells ([1]; immunized i.n.): 1 (× 10^4)/mL
Colony Forming Units in BAL Fluid ([1]; immunized i.p.): 5 CFU (× 10^3)/mL
White Blood Cell Counts in BAL Fluid, Total Cells ([1]; immunized i.p.): 28 (× 10^4)/mL
cross-reactivity of the antiserum with PAO (AcPAO(128-144)OH [2]): very high cross-reactivities
protection after P1 wild-type challenge (P1 wild-type): effective in protecting; also recorded: high level of protection

KCKSTQDEMFTPKGCSK [CS4]
protection after P1 wild-type challenge (P1 wild-type): good protection

KCTSDQDEQFIPKGCSK [PAK, reference compound]
cross-reactivity of the antiserum with PAO (AcPAO(128-144)OH [2]): cross-reactive with the native PAO sequence
protection / survival time after PAO wild-type challenge [3]: does not provide protection against PAO challenge

KCTSDQDPQFIPKGCSK [E135P]
IC50 (AcPAK(128-144)OH; competition ELISA on PAK pili, read-out: I50 for PAK): 0.41 µM
PAK A (AcPAK(128-144)OH; [6]): −2.2
cross-reactivity of the antiserum with P1 (AcP1(126-148)OH): not cross-reactive
IC50 (AcP1(126-148)OH; competition ELISA on PAK pili, read-out: I50 for P1): 176 µM
PI A (AcP1(126-148)OH; [6]): +6.9
cross-reactivity of the antiserum with KB7 (AcKB7(128-144)OH): not able to effectively bind; also recorded: not cross-reactive
KB7 A (AcKB7(128-144)OH; [6]): −1.2
IC50 (AcKB7(128-144)OH; peptide giving 50% inhibition of antibody binding to PAK pilin, read-out: KB7 I50): 835 µM
KPAK/KPAO (AcPAO(128-144)OH [4]): 11,600
cross-reactivity of the antiserum with PAO (AcPAO(128-144)OH [2]): not able to effectively bind; also recorded: less cross-reactive than native PAK antiserum; also recorded: less cross-reactive to PAO than PAK peptide
IC50 (AcPAO(128-144)OH [2]; competition ELISA on PAK pili, read-out: I50 for PAO): 4750 µM
PAO A (AcPAO(128-144)OH [2]; [6]): −19.7
IC50 [5]: 0.7 µM

KCTSTQDPQFIPKGCSK [CS2]
cross-reactivity of the antiserum with PAO (AcPAO(128-144)OH [2]): enhanced cross-reactivity to PAO
protection / survival time after PAO wild-type challenge [3]: complete protection
protection after P1 wild-type challenge (P1 wild-type): high level of protection
protection after PAK wild-type challenge (PAK wild-type): very high level of protection

KCTSTQDPQFTPKGCSK [CS3]
protection after P1 wild-type challenge (P1 wild-type): high level of protection
